Tested on: THP1 cells
Type: cell-based, human
Details: CA-4948 vs DMSO in THP1 cells

Compound: Cc1cc(-c2nc(C(=O)Nc3cc4oc(N5CCOCC5)nc4nc3N3CC[C@@H](O)C3)co2)ccn1 [CA-4948, emavusertib]
- Log(FC) of gene FAM57B: 0.9462
- Log(FC) of gene FAM229A: 0.8452
- Log(FC) of gene FBXO15: −0.5977
- Log(FC) of gene FCRLB: 1.162
- Log(FC) of gene FFAR4: 0.5911
- Log(FC) of gene FLJ31945: −0.9544
- Log(FC) of gene FLJ45513: 1.668
- Log(FC) of gene GALR2: 0.6354
- Log(FC) of gene GAS6-AS1: 0.6025
- Log(FC) of gene GDPD3: 0.695
- Log(FC) of gene GIPR: 0.6177
- Log(FC) of gene GJC2: 0.7031
- Log(FC) of gene GNMT: 1.408
- Log(FC) of gene GP9: 0.8031
- Log(FC) of gene GPR3: −0.5921
- Log(FC) of gene GPR113: 0.7578
- Log(FC) of gene GPR135: 0.8057
- Log(FC) of gene GPR158: −0.6058
- Log(FC) of gene GSDMB: 0.7698
- Log(FC) of gene GSTM2: 0.7484
- Log(FC) of gene GUCA1B: 1.348
- Log(FC) of gene HHLA3: 0.7796
- Log(FC) of gene HLA-F-AS1: 0.5961
- Log(FC) of gene HPD: 0.6253
- Log(FC) of gene HSPA7: 0.9538
- Log(FC) of gene ID3: 0.6893
- Log(FC) of gene IGFBP3: −0.9606
- Log(FC) of gene IGFBP7-AS1: 0.9516
- Log(FC) of gene IL8: −0.7139
- Log(FC) of gene IL9R: 1.002
- Log(FC) of gene IL10RB-AS1: 0.6103
- Log(FC) of gene IPO9-AS1: 0.7271
- Log(FC) of gene ITIH4: 1.233
- Log(FC) of gene KCND1: 0.5935
- Log(FC) of gene KCNIP3: −0.6151
- Log(FC) of gene KIAA1324: 0.7793
- Log(FC) of gene KRBA2: −0.8123
- Log(FC) of gene LAMC3: 0.6855
- Log(FC) of gene LDLRAD4: 0.7569
- Log(FC) of gene LHPP: 1.078
- Log(FC) of gene LINC00337: 0.6329
- Log(FC) of gene LINC00641: 0.8241
- Log(FC) of gene LINC00893: 0.737
- Log(FC) of gene LINC00959: 0.7922
- Log(FC) of gene LOC155060: 0.6346
- Log(FC) of gene LOC284889: 0.8366
- Log(FC) of gene LOC644961: 0.6222
- Log(FC) of gene LOC728715: 0.6401
- Log(FC) of gene LOC728752: 0.7225
- Log(FC) of gene LOC100128494: 0.9913
- Log(FC) of gene LOC100129924: 1.019
- Log(FC) of gene LOC100130698: −1.064
- Log(FC) of gene LOC100130705: 0.845
- Log(FC) of gene LOC100133091: 0.5851
- Log(FC) of gene LOC100134868: 0.8444
- Log(FC) of gene LOC100288069: 0.6928
- Log(FC) of gene LOC100288102: −0.6006
- Log(FC) of gene LOC100505771: 0.7704
- Log(FC) of gene LOC100506083: 0.8144
- Log(FC) of gene LOC100506100: 0.8985
- Log(FC) of gene LOC100506472: 0.7649
- Log(FC) of gene LOC100506518: 0.7779
- Log(FC) of gene LOC100506548: 1.108
- Log(FC) of gene LOC100507373: 0.7784
- Log(FC) of gene LOC100507424: 1.26
- Log(FC) of gene LOC100507462: 0.6976
- Log(FC) of gene LOC101927085: −0.6948
- Log(FC) of gene LOC101927119: 0.6408
- Log(FC) of gene LOC101927895: 0.6379
- Log(FC) of gene LOC101927910: 1.281
- Log(FC) of gene LOC101927974: 0.7679
- Log(FC) of gene LOC101928038: 0.8781
- Log(FC) of gene LOC101928055: 0.8595
- Log(FC) of gene LOC101928710: 0.5901
- Log(FC) of gene LOC101928830: 0.7631
- Log(FC) of gene LOC101929046: 0.6794
- Log(FC) of gene LOC101929054: 0.589
- Log(FC) of gene LOC101929112: 0.5992
